Patent US6737383B1, “Herbicidal oxadiazolidines” (priority 1999, dated 2004)

Experiments:
cocklebur = assay: Test B pre/postemergence cocklebur; assay type: in vivo, Xanthium strumarium
Outline: (§1)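 Herbicidal effect was estimated by eye on a ten-point control scale after plants spent twelve to sixteen days in a greenhouse following soil or foliar treatment. Foliar sprays targeted plants at one to four leaves; all doses were formulated in a non-phytotoxic solvent with surfactant.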

soybean = assay: Test B pre/postemergence soybean; assay type: in vivo, Glycine max
Outline: as §1

purple nutsedge = assay: Test B pre/postemergence purple nutsedge; assay type: in vivo, Cyperus rotundus; details: Postemergence
Outline: as §1

bamyardgrass = assay: Test B flood test barnyardgrass; assay type: in vivo, Echinochloa crus-galli
Outline: (§2)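 Plants were grown to the 2-leaf stage before treatment with test chemical, then held in a greenhouse for twelve to sixteen days. Injury was visually rated against untreated controls on a 0–10 scale, where 0 is no effect and 10 is complete control.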

blackgrass = assay: Test B pre/postemergence blackgrass; assay type: in vivo, Alopecurus myosuroides
Outline: as §1

morningglory = assay: Test B pre/postemergence morningglory; assay type: in vivo, Ipomoea hederacea
Outline: as §1

rape = assay: Test B pre/postemergence rape; assay type: in vivo, Brassica napus
Outline: as §1

velvetleaf = assay: Test B pre/postemergence velvetleaf; assay type: in vivo, Abutilon theophrasti
Outline: as §1

corn = assay: Test B pre/postemergence corn; assay type: in vivo, Zea mays
Outline: as §1

giant foxtail = assay: Test B pre/postemergence giant foxtail; assay type: in vivo, Setaria faberii
Outline: as §1

crabgrass = assay: Test B pre/postemergence crabgrass; assay type: in vivo, Digitaria sanguinalis
Outline: as §1

pigweed = assay: Test B pre/postemergence pigweed; assay type: in vivo, Amaranthus retroflexus
Outline: as §1

wild oat = assay: Test B pre/postemergence wild oat; assay type: in vivo, Avena fatua
Outline: as §1

sugar beet = assay: Test B pre/postemergence sugar beet; assay type: in vivo, Beta vulgaris
Outline: as §1

smallflower flatsedge = assay: Test B flood test smallflower flatsedge; assay type: in vivo, Cyperus difformis
Outline: as §2

surinam grass = assay: Test B pre/postemergence surinam grass; assay type: in vivo, Brachiaria decumbens
Outline: as §1

[1] = Preemergence, Rate 62 g/ha, scale of 0 to 10 where 0 is no effect and 10 is complete control
[2] = Preemergence, Rate 250 g/ha, scale of 0 to 10 where 0 is no effect and 10 is complete control
[3] = Preemergence, Rate 500 g/ha, scale of 0 to 10 where 0 is no effect and 10 is complete control
[4] = Rate 62 g/ha, Postemergence, scale of 0 to 10 where 0 is no effect and 10 is complete control
[5] = Rate 125 g/ha, Postemergence, scale 0 to 10
[6] = Rate 125 g/ha, Preemergence, scale of 0 to 10 where 0 is no effect and 10 is complete control
[7] = Rate 500 g/ha, Postemergence, scale 0 to 10
[8] = Rate 62 g/ha, headed Pre-emergence (flood test species), scale 0 to 10 (0 no effect, 10 complete control)
[9] = Rate 125 g/ha, Pre-emergence, flood test species, scale 0 to 10 where 0 is no effect and 10 is complete control
[10] = Rate 250 g/ha, Pre-emergence, flood-test species, scale 0 to 10, 0 is no effect, 10 is complete control
[11] = Rate 500 g/ha, Pre-emergence, flood test species, scale 0 to 10 (0 no effect, 10 complete control)

For CC(=O)OCCCCn1c(=O)on(C(=O)N(c2ccc(F)cc2)C(C)C)c1=O [Compound 211], the “Cocklebur plant response rating” value (cocklebur; [1]) was 0, the “Cocklebur plant response rating” value (cocklebur; [2]) was 0 and the “Plant response rating, Cocklebur” value (cocklebur; [3]) was 0. For the same compound, the “Cocklebur plant response rating” value (cocklebur; [4]) was 0, the “Cocklebur plant response rating” value (cocklebur; [5]) was 0 and the “Cocklebur plant response rating” value (cocklebur; [6]) was 0. The “Plant response rating (0 to 10; 0 is no effect, 10 is complete control), Cocklebur” value (cocklebur; Rate 250 g/ha, Postemergence) was 0, the “Cocklebur plant response rating” value (cocklebur; [7]) was 0 and the “Soybean plant response rating” value (soybean; [1]) was 0. For the same compound, the “Soybean plant response rating” value (soybean; [2]) was 0, the “Plant response rating, Soybean” value (soybean; [3]) was 0 and the “Soybean plant response rating” value (soybean; [4]) was 3. The “Soybean plant response rating” value (soybean; [5]) was 4, the “Soybean plant response rating” value (soybean; [6]) was 0 and the “Plant response rating (0 to 10; 0 is no effect, 10 is complete control), Soybean” value (soybean; Rate 250 g/ha, Postemergence) was 4. For the same compound, the “Soybean plant response rating” value (soybean; [7]) was 4, the “Nutsedge plant response rating” value (purple nutsedge; Rate 62 g/ha, scale of 0 to 10 where 0 is no effect and 10 is complete control) was 0 and the “Nutsedge plant response rating” value (purple nutsedge; Rate 125 g/ha, scale 0 to 10) was 0. The “Plant response rating (0 to 10; 0 is no effect, 10 is complete control), Nutsedge” value (purple nutsedge; Rate 250 g/ha) was 0, the “Nutsedge plant response rating” value (purple nutsedge; Rate 500 g/ha, scale 0 to 10) was 0 and the “Barnyardgrass plant response rating” value (bamyardgrass; [8]) was 0. The “Barnyardgrass plant response rating” value (bamyardgrass; [9]) was 0, the “Barnyardgrass plant response rating” value (bamyardgrass; [10]) was 0 and the “Barnyardgrass plant response rating” value (bamyardgrass; [11]) was 0. The “Blackgrass plant response rating” value (blackgrass; [1]) was 6, the “Blackgrass plant response rating” value (blackgrass; [2]) was 9 and the “Plant response rating, Blackgrass” value (blackgrass; [3]) was 9. The “Blackgrass plant response rating” value (blackgrass; [4]) was 2, the “Blackgrass plant response rating” value (blackgrass; [5]) was 3 and the “Blackgrass plant response rating” value (blackgrass; [6]) was 9. The “Plant response rating (0 to 10; 0 is no effect, 10 is complete control), Blackgrass” value (blackgrass; Rate 250 g/ha, Postemergence) was 4, the “Blackgrass plant response rating” value (blackgrass; [7]) was 4 and the “Morningglory plant response rating” value (morningglory; [1]) was 0. For the same compound, the “Morningglory plant response rating” value (morningglory; [2]) was 0, the “Plant response rating, Morningglory” value (morningglory; [3]) was 0 and the “Morningglory plant response rating” value (morningglory; [4]) was 4. For the same compound, the “Morningglory plant response rating” value (morningglory; [5]) was 6, the “Morningglory plant response rating” value (morningglory; [6]) was 0 and the “Plant response rating (0 to 10; 0 is no effect, 10 is complete control), Morningglory” value (morningglory; Rate 250 g/ha, Postemergence) was 6. For the same compound, the “Morningglory plant response rating” value (morningglory; [7]) was 6, the “Rape plant response rating” value (rape; [1]) was 0 and the “Rape plant response rating” value (rape; [2]) was 0. For the same compound, the “Plant response rating, Rape” value (rape; [3]) was 4, the “Rape plant response rating” value (rape; [4]) was 2 and the “Rape plant response rating” value (rape; [5]) was 2. For the same compound, the “Rape plant response rating” value (rape; [6]) was 0, the “Plant response rating (0 to 10; 0 is no effect, 10 is complete control), Rape” value (rape; Rate 250 g/ha, Postemergence) was 2 and the “Rape plant response rating” value (rape; [7]) was 3. The “Velvetleaf plant response rating” value (velvetleaf; [1]) was 0, the “Velvetleaf plant response rating” value (velvetleaf; [2]) was 0 and the “Plant response rating, Velvetleaf” value (velvetleaf; [3]) was 0. For the same compound, the “Velvetleaf plant response rating” value (velvetleaf; [4]) was 0, the “Velvetleaf plant response rating” value (velvetleaf; [5]) was 0 and the “Velvetleaf plant response rating” value (velvetleaf; [6]) was 0. For the same compound, the “Plant response rating (0 to 10; 0 is no effect, 10 is complete control), Velvetleaf” value (velvetleaf; Rate 250 g/ha, Postemergence) was 1, the “Corn plant response rating” value (corn; [1]) was 0 and the “Corn plant response rating” value (corn; [2]) was 0. The “Plant response rating, Corn” value (corn; [3]) was 0, the “Corn plant response rating” value (corn; [4]) was 0 and the “Corn plant response rating” value (corn; [5]) was 0. For the same compound, the “Corn plant response rating” value (corn; [6]) was 0, the “Plant response rating (0 to 10; 0 is no effect, 10 is complete control), Corn” value (corn; Rate 250 g/ha, Postemergence) was 0 and the “Corn plant response rating” value (corn; [7]) was 0. For the same compound, the “Giant foxtail plant response rating” value (giant foxtail; [1]) was 3, the “Giant foxtail plant response rating” value (giant foxtail; [2]) was 7 and the “Plant response rating, Giant foxtail” value (giant foxtail; [3]) was 8. The “Giant foxtail plant response rating” value (giant foxtail; [4]) was 0, the “Giant foxtail plant response rating” value (giant foxtail; [5]) was 0 and the “Giant foxtail plant response rating” value (giant foxtail; [6]) was 4. The “Plant response rating (0 to 10; 0 is no effect, 10 is complete control), Giant foxtail” value (giant foxtail; Rate 250 g/ha, Postemergence) was 2, the “Giant foxtail plant response rating” value (giant foxtail; [7]) was 3 and the “Crabgrass plant response rating” value (crabgrass; [1]) was 0. The “Crabgrass plant response rating” value (crabgrass; [2]) was 3, the “Plant response rating, Crabgrass” value (crabgrass; [3]) was 3 and the “Crabgrass plant response rating” value (crabgrass; [4]) was 0. The “Crabgrass plant response rating” value (crabgrass; [5]) was 0, the “Crabgrass plant response rating” value (crabgrass; [6]) was 0 and the “Plant response rating (0 to 10; 0 is no effect, 10 is complete control), Crabgrass” value (crabgrass; Rate 250 g/ha, Postemergence) was 1. The “Crabgrass plant response rating” value (crabgrass; [7]) was 3, the “Redroot pigweed plant response rating” value (pigweed; [1]) was 0 and the “Redroot pigweed plant response rating” value (pigweed; [2]) was 3. For the same compound, the “Plant response rating, Redroot pigweed” value (pigweed; [3]) was 7, the “Redroot pigweed plant response rating” value (pigweed; [4]) was 2 and the “Redroot pigweed plant response rating” value (pigweed; [5]) was 4. The “Redroot pigweed plant response rating” value (pigweed; [6]) was 0, the “Plant response rating (0 to 10; 0 is no effect, 10 is complete control), Redroot pigweed” value (pigweed; Rate 250 g/ha, Postemergence) was 4 and the “Redroot pigweed plant response rating” value (pigweed; [7]) was 5. For the same compound, the “Wild oats plant response rating” value (wild oat; [1]) was 0, the “Wild oats plant response rating” value (wild oat; [2]) was 5 and the “Plant response rating, Wild oats” value (wild oat; [3]) was 5. For the same compound, the “Wild oats plant response rating” value (wild oat; [4]) was 0, the “Wild oats plant response rating” value (wild oat; [5]) was 0 and the “Wild oats plant response rating” value (wild oat; [6]) was 4. The “Plant response rating (0 to 10; 0 is no effect, 10 is complete control), Wild oats” value (wild oat; Rate 250 g/ha, Postemergence) was 0, the “Sugarbeets plant response rating” value (sugar beet; [1]) was 0 and the “Sugarbeets plant response rating” value (sugar beet; [2]) was 0. The “Plant response rating, Sugarbeets” value (sugar beet; [3]) was 8, the “Sugarbeets plant response rating” value (sugar beet; [4]) was 0 and the “Sugarbeets plant response rating” value (sugar beet; [5]) was 2. The “Sugarbeets plant response rating” value (sugar beet; [6]) was 0, the “Plant response rating (0 to 10; 0 is no effect, 10 is complete control), Sugarbeets” value (sugar beet; Rate 250 g/ha, Postemergence) was 2 and the “Sugarbeets plant response rating” value (sugar beet; [7]) was 2. For the same compound, the “S. Flatsedge plant response rating” value (smallflower flatsedge; [8]) was 0, the “S. Flatsedge plant response rating” value (smallflower flatsedge; [9]) was 0 and the “S. Flatsedge plant response rating” value (smallflower flatsedge; [10]) was 0. The “S. Flatsedge plant response rating” value (smallflower flatsedge; [11]) was 0, the “B. signalgrass plant response rating” value (surinam grass; [1]) was 0 and the “B. signalgrass plant response rating” value (surinam grass; Preemergence, Rate 250 g/ha, scale 0 to 10, 0 is no effect, 10 is complete control) was 0. For the same compound, the “Plant response rating, B. signalgrass” value (surinam grass; [3]) was 5, the “B. signalgrass plant response rating” value (surinam grass; [4]) was 0 and the “B. signalgrass plant response rating” value (surinam grass; Rate 125 g/ha, Postemergence, scale 0 (no effect) to 10 (complete control)) was 0. The “B. signalgrass plant response rating” value (surinam grass; [6]) was 0, the “Plant response rating (0 to 10; 0 is no effect, 10 is complete control), B. signalgrass” value (surinam grass; Rate 250 g/ha, Postemergence) was 0 and the “B. signalgrass plant response rating” value (surinam grass; Rate 500 g/ha, Postemergence, scale 0 to 10, 0 no effect, 10 complete control) was 0.
